Results on 33 molecules are retold here after patent US9765087B2, “Benzimidazole derivatives” (ENANTA PHARMACEUTICALS, INC., priority 2009, dated 2017).

Each structure is given as a SMILES string. Where two headings read alike, the source gives them in different places.

The test system of one experiment is HCV 1a genotype replicon. Briefly: HCV replicon assay (qRT-PCR or luciferase), genotype 1a. The format is cell-based. The following applies: Hepatitis C virus. In outline: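 Bartenschlager HCV replicon Huh cells; EC50 from HCV RNA by TaqMan qRT-PCR normalised to GAPDH, cytotoxicity by MTS. Combination studies in Huh-luc/neo-ET cells seeded at 7,000/well, compounds in 6-point two-fold dilutions, 0.2% DMSO final, 72 h at 37 °C, luciferase read-out.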

A further experiment concerns HCV 1b genotype replicon. Nature of the experiment: HCV replicon assay (qRT-PCR or luciferase), genotype 1b. Format: cell-based. The following applies: Hepatitis C virus. In outline: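 EC50 derived either from luciferase signal in Huh-luc/neo-ET replicon cells after 72 h compound exposure (0.2% DMSO, 37 °C) or from TaqMan qRT-PCR of replicon RNA normalized to GAPDH. MTS assay assessed cytotoxicity; combinations tested in 6-point two-fold checkerboards around each EC50.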
For orientation: A replicon is a self-replicating genome or part of one, used to study replication in cells.

The mark [1] stands for this setting: Table 12, numeric values, read-out: 1a EC50.
Where [2] appears, read: Table 12, range class, read-out: 1b EC50 Range.
[3] abbreviates: Table 12, range class, read-out: 1a EC50 Range.
[4] abbreviates: Table 12, numeric values, read-out: 1b EC50.

One may read the EC50 as the concentration needed to bring the measured effect to its halfway point. For the molecule `COC(=O)N[C@H](C(=O)N1CC2(CC2)C[C@H]1c1ncc(-c2ccc(C#Cc3ccc4nc([C@@H]5C[C@@]6(CCCCO6)CN5C(=O)[C@@H](NC(=O)OC)C(C)C)[nH]c4c3)cc2)[nH]1)C(C)C` [Example 633], the EC50 is 0.035 nM in the experiment on HCV 1a genotype replicon (setting [1]) and less than 1 nM in the experiment with HCV 1b genotype replicon (setting [2]). Turning to `[2H]c1c([2H])c(-c2c[nH]c([C@@H]3CC4(CC4)CN3C(=O)[C@@H](NC(=O)OC)C(C)C)n2)c([2H])c([2H])c1C#Cc1ccc2[nH]c([C@@H]3CC4(CC4)CN3C(=O)[C@@H](NC(=O)OC)C(C)C)nc2c1` [Example 575], the EC50 in the experiment with HCV 1a genotype replicon (setting [3]) and with HCV 1b genotype replicon (setting [2]) was less than 1 nM in each case.

Regarding `COC(=O)N[C@H](C(=O)N1CCC[C@H]1c1ncc(-c2ccc(C#Cc3ccc4nc([C@@H]5CC6(CC6)CN5C(=O)[C@H](NC(=O)OC)c5ccccc5)[nH]c4c3)cc2)[nH]1)C(C)C` [Example 646], the EC50 was less than 1 nM in the experiment on HCV 1a genotype replicon (read-out: 1a EC50 Range, Table 12, range class) and 0.005 nM in the experiment with HCV 1b genotype replicon (setting [4]). Turning to `COC(=O)N[C@H](C(=O)N1CC2(CC2)C[C@H]1c1ncc(-c2ccc(C#Cc3ccc4nc([C@@H]5C[C@H](C6CC6)CN5C(=O)[C@@H](NC(=O)OC)C(C)C)[nH]c4c3)cc2)[nH]1)C(C)C` [Example 691], the EC50 with HCV 1a genotype replicon (setting [3]) and in the experiment with HCV 1b genotype replicon (setting [2]) was less than 1 nM in each case.

`COC(=O)N[C@H](C(=O)N1C[C@@H](O)C[C@H]1c1nc(-c2ccc(C#Cc3ccc4[nH]c([C@@H]5C[C@@]6(CCCO6)CN5C(=O)[C@@H](NC(=O)OC)C(C)C)nc4c3)cc2)c[nH]1)C(C)C` [Example 561]: the EC50 in the experiment with HCV 1a genotype replicon (setting [3]) is less than 1 nM; in the experiment on HCV 1b genotype replicon (setting [4]), 0.024 nM. In the case of `COC(=O)N[C@H](C(=O)N1CC2(CC2)C[C@H]1c1nc2ccc(C#Cc3ccc(-c4cnc([C@@H]5CC6(CC6)CN5C(=O)[C@H](NC(=O)OC)c5ccccc5)[nH]4)cc3)cc2[nH]1)C(C)C` (stereo in doubt) [Example 647], the values for the EC50 in the experiment with HCV 1a genotype replicon (setting [3]) and with HCV 1b genotype replicon (setting [4]) were less than 1 nM and 0.008 nM, respectively.

Take `COC(=O)N[C@H](C(=O)N1CCC[C@H]1c1ncc(-c2ccc(C#Cc3ccc4nc([C@@H]5C[C@@]6(CCC(=O)O6)CN5C(=O)[C@@H](NC(=O)OC)C(C)C)[nH]c4c3)cc2)[nH]1)C(C)C` [Example 635]: the EC50 in the experiment on HCV 1a genotype replicon (setting [3]) and in the experiment on HCV 1b genotype replicon (setting [2]) was less than 1 nM in each case. For `COC(=O)N[C@H](C(=O)N1CC2(CC2)C[C@H]1c1ncc(-c2ccc(C#Cc3ccc4nc([C@@H]5CC6(CC6)CN5C(=O)[C@@H](NC(=O)OC)C5CCOCC5)[nH]c4c3)cc2)[nH]1)C1CCOCC1` [Example 583], the concentration giving a half-maximal response (EC50) in the experiment on HCV 1a genotype replicon (setting [3]) and in the experiment on HCV 1b genotype replicon (setting [2]) was less than 1 nM in each case. For the molecule `COC(=O)N[C@H](C(=O)N1CC2(CC2)C[C@H]1c1ncc(-c2ccc(C#Cc3ccc4nc([C@@H]5CC6(CC6)CN5C(=O)[C@H](NC(=O)OC)c5ccc(F)cc5)[nH]c4c3)cc2)[nH]1)C(C)C` [Example 580], the EC50 in the experiment with HCV 1a genotype replicon (setting [3]) is less than 1 nM; with HCV 1b genotype replicon (setting [4]) it was 0.007 nM. For the molecule `COC(=O)N[C@H](C(=O)N1CCC[C@H]1c1nc(-c2ccc(C#Cc3ccc4[nH]c([C@@H]5C[C@]6(CCOC6)CN5C(=O)[C@@H](NC(=O)OC)C(C)C)nc4c3)cc2)c[nH]1)C(C)C` [Example 564], the values for the EC50 in the experiment with HCV 1a genotype replicon (setting [3]) and in the experiment with HCV 1b genotype replicon (setting [4]) were less than 1 nM and 0.008 nM, respectively. Take `COC(=O)N[C@@H](C(=O)N1CC2(CC2)C[C@H]1c1ncc(-c2ccc(C#Cc3ccc4nc([C@@H]5CC6(CC6)CN5C(=O)[C@H](NC(=O)OC)c5ccccc5)[nH]c4c3)cc2)[nH]1)c1ccccc1` [Example 645]: the EC50 was less than 1 nM with HCV 1a genotype replicon (setting [3]) and 0.005 nM in the experiment on HCV 1b genotype replicon (setting [4]). On to `COC(=O)N[C@@H](CC#N)C(=O)N1CCC[C@H]1c1nc(-c2ccc(C#Cc3ccc4[nH]c([C@@H]5CC6(CC6)CN5C(=O)[C@@H](NC(=O)OC)C(C)C)nc4c3)cc2)c[nH]1` [Example 621], for which the figures for the EC50 in the experiment on HCV 1a genotype replicon (setting [1]) and with HCV 1b genotype replicon (setting [2]) were 0.207 nM and less than 1 nM, respectively.

`COC(=O)N[C@@H](COC(N)=O)C(=O)N1CCC[C@H]1c1ncc(-c2ccc(C#Cc3ccc4nc([C@@H]5CC6(CC6)CN5C(=O)[C@@H](NC(=O)OC)C(C)C)[nH]c4c3)cc2)[nH]1` [Example 552]: the EC50 in the experiment on HCV 1a genotype replicon (setting [3]) and in the experiment with HCV 1b genotype replicon (setting [2]) was less than 1 nM in each case. Take `COC(=O)N[C@H](C(=O)N1CCC[C@H]1c1nc(-c2ccc(C#Cc3ccc4[nH]c([C@@H]5C[C@@]6(CCCO6)CN5C(=O)[C@@H](NC(=O)OC)C(C)C)nc4c3)cc2)c[nH]1)C(C)C` [Example 551]: the EC50 with HCV 1a genotype replicon (setting [3]) was less than 1 nM; in the experiment on HCV 1b genotype replicon (setting [4]) it was 0.013 nM. With `COC(=O)N[C@@H](CCCNC(N)=O)C(=O)N1CC2(CC2)C[C@H]1c1nc(-c2ccc(C#Cc3ccc4[nH]c([C@@H]5CC6(CC6)CN5C(=O)[C@@H](NC(=O)OC)C(C)C)nc4c3)cc2)c[nH]1` [Example 616], the EC50 in the experiment with HCV 1a genotype replicon (setting [3]) is less than 1 nM; with HCV 1b genotype replicon (setting [4]), 0.495 nM. On the same counts, the results for `COC(=O)N[C@H](C(=O)N1CCC[C@H]1c1ncc(-c2ccc(C#Cc3ccc4nc([C@@H]5C[C@@]6(CCCOC6)CN5C(=O)[C@@H](NC(=O)OC)C(C)C)[nH]c4c3)cc2)[nH]1)C(C)C` [Example 569] are less than 1 nM and 0.009 nM. The matching figures for `COC(=O)N[C@H](C(=O)N1CC2(CC2)C[C@H]1c1ncc(-c2ccc(C#Cc3ccc4nc([C@@H]5C[C@]6(CCOC6)CN5C(=O)[C@@H](NC(=O)OC)C(C)C)[nH]c4c3)cc2)[nH]1)C(C)C` [Example 565]: less than 1 nM and 0.011 nM. The matching figures for `COC(=O)N[C@@H](CF)C(=O)N1CC2(CC2)C[C@H]1c1nc(-c2ccc(C#Cc3ccc4[nH]c([C@@H]5CC6(CC6)CN5C(=O)[C@@H](NC(=O)OC)C(C)C)nc4c3)cc2)c[nH]1` [Example 615]: less than 1 nM and 0.005 nM. As to `COC(=O)N[C@H](C(=O)N1CCC[C@H]1c1nc(-c2ccc(C#Cc3ccc4[nH]c([C@@H]5C[C@@]6(CCOC6)CN5C(=O)[C@@H](NC(=O)OC)C(C)C)nc4c3)cc2)c[nH]1)C(C)C` [Example 630], the EC50 in the experiment on HCV 1a genotype replicon (setting [3]) is less than 1 nM; with HCV 1b genotype replicon (setting [4]) it was 0.011 nM.

Turning to `COC(=O)N[C@H](C(=O)N1CC2(CC2)C[C@H]1c1nc2cc(C#Cc3ccc(-c4c[nH]c([C@@H]5CCCN5C(=O)[C@H](NC(=O)OC)c5ccccc5)n4)cc3)ccc2[nH]1)C(C)C` [Example 579], the EC50 with HCV 1a genotype replicon (setting [3]) and in the experiment with HCV 1b genotype replicon (setting [2]) was less than 1 nM throughout. Turning to `COC(=O)N[C@H](C(=O)N1CCC[C@H]1c1nc(-c2ccc3cc(-c4ccc5[nH]c([C@@H]6CC7(CC7)CN6C(=O)[C@@H](NC(=O)OC)C(C)C)nc5c4)ccc3c2)c[nH]1)C(C)C` [Example 692], the EC50 in the experiment on HCV 1a genotype replicon (setting [3]) is less than 1 nM; with HCV 1b genotype replicon (setting [4]) it was 0.011 nM.

In the case of `COC(=O)N[C@@H](C(=O)N1CC2(CC2)C[C@H]1c1ncc(-c2ccc(C#Cc3ccc4nc([C@@H]5CC6(CC6)CN5C(=O)[C@H](NC(=O)OC)c5cccc(F)c5)[nH]c4c3)cc2)[nH]1)c1cccc(F)c1` [Example 677], the EC50 in the experiment on HCV 1a genotype replicon (setting [3]) lay in the range of 1 to 10 nM. With `CC[C@@H](C)[C@H](NC(=O)OC)C(=O)N1CC2(CC2)C[C@H]1c1ncc(-c2ccc(C#Cc3ccc4nc([C@@H]5CC6(CC6)CN5C(=O)[C@@H](NC(=O)OC)C(C)C)[nH]c4c3)cc2)[nH]1` [Example 606], the EC50 in the experiment on HCV 1a genotype replicon (setting [3]) is less than 1 nM. As for `COC(=O)N[C@H](C(=O)N1C[C@@H]2C[C@@H]2[C@H]1c1nc2cc(C#Cc3ccc(-c4c[nH]c([C@@H]5CCCN5C(=O)[C@@H](NC(=O)OC)C(C)C)n4)cc3)ccc2[nH]1)C(C)C` [Example 690], the EC50 in the experiment with HCV 1a genotype replicon (setting [3]) lay within 1 to 10 nM. With `COC(=O)N[C@H](C(=O)N1CC2(CC2)C[C@H]1c1nc2ccc(C#Cc3ccc(-c4cnc([C@@H]5C[C@@H](C)CN5C(=O)[C@@H](NC(=O)OC)C5CCOCC5)[nH]4)cc3)cc2[nH]1)C(C)C` [Example 603], the EC50 with HCV 1a genotype replicon (setting [3]) is less than 1 nM. Same read-out and setting: for `COC(=O)N[C@H](C(=O)N1CC2(CC2)C[C@H]1c1ncc(-c2ccc(C#Cc3ccc4nc([C@@H]5CC6(CC6)CN5C(=O)[C@H](NC(=O)OC)C5CCCC5)[nH]c4c3)cc2)[nH]1)C(C)C` [Example 599] the value was 1 to 10 nM. For the molecule `COC(=O)N[C@H](C(=O)N1CC2(CC2)C[C@H]1c1nc2ccc(C#Cc3ccc(-c4cnc([C@@H]5CCCN5C(=O)[C@H](NC(=O)OC)c5ccoc5)[nH]4)cc3)cc2[nH]1)C(C)C` [Example 681], in the experiment on HCV 1a genotype replicon (setting [1]), the EC50 turned out to be 0.202 nM. Take `COC(=O)N[C@H](C(=O)N1CC2(CC2)C[C@H]1c1nc2ccc(C#Cc3ccc(-c4cnc([C@@H]5CCCN5C(=O)OC(C)(C)C)[nH]4)cc3)cc2[nH]1)C(C)C` [Compound 666]: the EC50 in the experiment with HCV 1a genotype replicon (setting [3]) is greater than 10 nM. The same measure, in the same setting: for `COC(=O)N[C@H](C(=O)N1CC2(CC2)C[C@H]1c1nc2ccc(C#Cc3ccc(-c4cnc([C@@H]5C[C@@H](C)CN5C(=O)[C@H](NC(=O)OC)c5ccccc5)[nH]4)cc3)cc2[nH]1)C(C)C` [Example 671] the value was less than 1 nM; for `COC(=O)N[C@H](C(=O)N1CC2(CC2)C[C@H]1c1ncc(-c2ccc(C#Cc3ccc4nc([C@@H]5C[C@H]6C[C@H]6N5C(=O)[C@H](NC(=O)OC)c5ccccc5)[nH]c4c3)cc2)[nH]1)C(C)C` [Example 586], less than 1 nM; for `COC(=O)N[C@H](C(=O)N1CC2(CC2)C[C@H]1c1ncc(-c2ccc(C#Cc3ccc4nc([C@@H]5CC6(CC6)CN5C(=O)[C@H](NC(=O)OC)c5ccccc5F)[nH]c4c3)cc2)[nH]1)C(C)C` [Example 652], less than 1 nM. `COC(=O)N[C@@H](CCNC(N)=O)C(=O)N1CCC[C@H]1c1nc(-c2ccc(C#Cc3ccc4[nH]c([C@@H]5CC6(CC6)CN5C(=O)[C@@H](NC(=O)OC)C(C)C)nc4c3)cc2)c[nH]1` [Example 553]: in the experiment on HCV 1a genotype replicon (setting [3]), the EC50 is 1 to 10 nM. In the case of `COC(=O)N[C@H](C(=O)N1CC2(CC2)C[C@H]1c1nc2ccc(C#Cc3ccc(-c4cnc([C@@H]5C[C@H]6C[C@H]6N5C(=O)[C@H](NC(=O)OC)c5cccc(F)c5)[nH]4)cc3)cc2[nH]1)C(C)C` [Example 684], the EC50 in the experiment with HCV 1a genotype replicon (setting [3]) is less than 1 nM.
